The values below come from patent US20260062422A1 (Halda Therapeutics OpCo, Inc., priority 2022, published 2026).

Experiment [1] has as its system T-Rex 293 cell line SC3 cells having increased expression of androgen receptor protein due to exposure to doxycycline. The experiment can be described thus: Cellular growth inhibition, T-Rex 293 SC3 cells with doxycycline (androgen receptor induced), CellTiter-Glo. Format: cell-based. The settings on record: 72 h, T-Rex 293 SC3 cells with 10 ng/mL doxycycline (increased androgen receptor expression). Put shortly: (§1)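 Cells of clone SC3 are seeded in charcoal-dextran-stripped serum medium with or without 10 ng/mL doxycycline to induce wild-type androgen receptor. After 24 h, serial compound dilutions are added at 0.5% DMSO and incubated 72 h at 37 °C. CellTiter-Glo 2.0 measures viability, giving GI50 values.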

The test system of experiment [2] is T-Rex 293 cell line SC3 cells lacking increased expression of androgen receptor protein. The experiment is described as follows: Cellular growth inhibition, T-Rex 293 SC3 cells without doxycycline, CellTiter-Glo. The class given is cell-based. To be noted: 72 h, T-Rex 293 SC3 cells not exposed to doxycycline, CellTiter-Glo 2.0. The gist of the method:
as §1
On the technique in general: Cellular ATP, detected with luciferase, serves as a proxy for viable cell number.

Experiment [3] relates to VCaP cells. The experiment can be described thus: Cellular growth inhibition assay for VCaP cells, CellTiter-Glo. The class given is cell-based, human. The settings on record: Homo sapiens, VCaP, 72 h, 72 hours treatment, CellTiter-Glo 2.0. The gist of the method:
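GI50 values come from four-parameter curve fits of luminescence data normalized to a zero baseline. Compound, in medium with 0.5% DMSO, was added one day after plating and left for 72 h before CellTiter-Glo 2.0 addition.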

Experiment [4] concerns T47D cells. The experiment can be described thus: Cellular growth inhibition assay for T47D cells, CellTiter-Glo. Format: cell-based, human. The settings on record: Homo sapiens, T47D, 72 h, 72 hours treatment, CellTiter-Glo 2.0 cell viability. Put shortly:
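Luminescence from CellTiter-Glo 2.0 after 72 h of compound exposure gives the viability signal. Cells grew in insulin-supplemented (0.2 units/mL) DMEM with 10% FBS and were treated one day after seeding at 0.5% DMSO. GI50 values come from four-parameter nonlinear regression.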

For `Cc1sc2c(c1C)C(c1ccc(-c3cc(OC4CCN(c5ncc(C(=O)N[C@H]6C(C)(C)[C@H](Oc7ccc(C#N)c(Cl)c7)C6(C)C)cn5)CC4)cs3)cc1)=N[C@@H](Cc1ncco1)c1nnc(C)n1-2` [Compound I-443], the 50% growth inhibitory concentration (GI50) was under 500 nM in experiment [1], over 3000 nM in experiment [2], under 500 nM in experiment [3] and over 3000 nM in experiment [4].
Consider `Cc1sc2c(c1C)C(c1ccc(CC3CCN(c4ncc(C(=O)N[C@H]5C(C)(C)[C@H](Oc6ccc(C#N)c(Cl)c6)C5(C)C)cn4)CC3)cc1)=NC1(CC1)c1nnc(C)n1-2` [Compound I-555], for which the GI50 is under 500 nM in experiment [1], 500 to 1500 nM in experiment [2], under 500 nM in experiment [3] and over 3000 nM in experiment [4].
For the compound `Cc1sc2c(c1C)C(c1ccc(C(=O)N3CCCC(C(=O)c4ncc(C(=O)N[C@H]5C(C)(C)[C@H](Oc6ccc(C#N)c(Cl)c6)C5(C)C)cn4)C3)cc1)=N[C@H](Cc1ncco1)c1nnc(C)n1-2` (some centres unmarked) [Compound I-346], the GI50 is under 500 nM in experiment [1], over 3000 nM in experiment [2], 500 to 1500 nM in experiment [3] and over 3000 nM in experiment [4].
Regarding `Cc1sc2c(c1C)C(c1ccc(CCCOC3CCN(c4ncc(C(=O)N[C@H]5C(C)(C)[C@H](Oc6ccc(C#N)c(Cl)c6)C5(C)C)cn4)CC3)cc1)=N[C@H](Cc1ccncc1)c1nnc(C)n1-2` [Compound I-216], the 50% growth inhibitory concentration (GI50) in experiment [1] is under 500 nM; in experiment [2] it was over 3000 nM; in experiment [3], under 500 nM; in experiment [4] it was over 3000 nM.
For `Cc1sc2c(c1C)C(c1ccc(C[C@@H]3CC[C@]4(CCCN(c5ncc(C(=O)N[C@H]6C(C)(C)[C@H](Oc7ccc(C#N)c(Cl)c7)C6(C)C)cn5)C4)C3)cc1)=N[C@@H](Cc1ncco1)c1nnc(C)n1-2` [Compound I-165], the GI50 in experiment [1] was under 500 nM; in experiment [2], over 3000 nM; in experiment [3], 500 to 1500 nM; in experiment [4], 1500 to 3000 nM.
With `Cc1sc2c(c1C)C(c1ccc([C@H]3C[C@@H](C4CCN(c5ncc(C(=O)N[C@H]6C(C)(C)[C@H](Oc7ccc(C#N)c(Cl)c7)C6(C)C)cn5)CC4)C3)cc1)=N[C@@H](Cc1ncco1)c1nnc(C)n1-2` [Compound I-398], the 50% growth inhibitory concentration (GI50) is under 500 nM in experiment [1], over 3000 nM in experiment [2], under 500 nM in experiment [3] and under 500 nM in experiment [4].
With `Cc1sc2c(c1C)C(c1ccc(O[C@H]3C[C@@]4(CCCN(c5ncc(C(=O)N[C@H]6C(C)(C)[C@H](Oc7ccc(C#N)c(Cl)c7)C6(C)C)cn5)C4)C3)cc1)=N[C@@H](Cc1ncco1)c1nnc(C)n1-2` [Compound I-193], the GI50 in experiment [1] is under 500 nM; in experiment [2] it was 500 to 1500 nM; in experiment [3], 500 to 1500 nM; in experiment [4], under 500 nM.
As for `Cc1sc2c(c1C)C(c1ccc(C(C)(C)N3CC4(CCCN(c5ncc(C(=O)N[C@H]6C(C)(C)[C@H](Oc7ccc(C#N)c(Cl)c7)C6(C)C)cn5)C4)C3)cc1)=N[C@@H](C)c1nnc(C)n1-2` [Compound I-464], the GI50 is under 500 nM in experiment [1], over 3000 nM in experiment [2], under 500 nM in experiment [3] and over 3000 nM in experiment [4].
Consider `CCNC(=O)C[C@@H]1N=C(c2ccc(N(C)CCC3CCN(c4ncc(C(=O)N[C@H]5C(C)(C)[C@H](Oc6ccc(C#N)c(Cl)c6)C5(C)C)cn4)CC3)cc2)c2c(sc(C)c2C)-n2c(C)nnc21` [Compound I-110], for which the GI50 in experiment [1], in experiment [2], in experiment [3] and in experiment [4] was under 500 nM each time.
Consider `Cc1sc2c(c1C)C(c1ccc(N3CCOC4(CCN(c5ncc(C(=O)N[C@H]6C(C)(C)[C@H](Oc7ccc(C#N)c(Cl)c7)C6(C)C)cn5)CC4)C3)cc1)=NC(Cc1ncco1)c1nnc(C)n1-2` (some centres unmarked) [Compound I-647], for which the GI50 was under 500 nM in experiment [1], over 3000 nM in experiment [2], over 3000 nM in experiment [3] and under 500 nM in experiment [4].
`Cc1sc2c(c1C)C(c1ccc(CN(C)C(=O)[C@@H]3CC[C@H](c4ncc(C(=O)N[C@H]5C(C)(C)[C@H](Oc6ccc(C#N)c(Cl)c6)C5(C)C)cn4)C3)cc1)=N[C@@H](Cc1ncco1)c1nnc(C)n1-2` [Compound I-371]: the GI50 in experiment [1] was under 500 nM; in experiment [2], over 3000 nM; in experiment [3], under 500 nM; in experiment [4], 500 to 1500 nM.
Regarding `Cc1sc2c(c1C)C(c1ccc(C#CCC3CCN(c4ncc(C(=O)N[C@H]5C(C)(C)[C@H](Oc6ccc(C#N)c(Cl)c6)C5(C)C)cn4)CC3)cc1)=N[C@H](Cc1ncco1)c1nnc(C)n1-2` [Compound I-58], the GI50 is under 500 nM in experiment [1], over 3000 nM in experiment [2], under 500 nM in experiment [3] and over 3000 nM in experiment [4].
Consider `Cc1sc2c(c1C)C(c1ccc(CC3CC4(CCN(c5ncc(C(=O)N[C@H]6C(C)(C)[C@H](Oc7ccc(C#N)c(Cl)c7)C6(C)C)cn5)CC4)C3)cc1)=N[C@@H](Cc1ncco1)c1nnc(C)n1-2` [Compound I-142], for which the GI50 in experiment [1] is under 500 nM; in experiment [2], over 3000 nM; in experiment [3], over 3000 nM; in experiment [4] it was over 3000 nM.
Take `Cc1sc2c(c1C)C(c1ccc(CC[C@H]3CCCC(c4ncc(C(=O)N[C@H]5C(C)(C)[C@H](Oc6ccc(C#N)c(Cl)c6)C5(C)C)cn4)C3)cc1)=N[C@@H](Cc1ncco1)c1nnc(C)n1-2` (some centres unmarked) [Compound I-298]: the GI50 in experiment [1], in experiment [2], in experiment [3] and in experiment [4] was under 500 nM in each case.
With `Cc1sc2c(c1C)C(c1ccc(CNC(=O)CN(C)c3ncc(C(=O)N[C@H]4C(C)(C)[C@H](Oc5ccc(C#N)c(Cl)c5)C4(C)C)cn3)cc1)=N[C@@H](Cc1ncco1)c1nnc(C)n1-2` [Compound I-266], the GI50 was under 500 nM in experiment [1], over 3000 nM in experiment [2], under 500 nM in experiment [3] and 500 to 1500 nM in experiment [4].
With `Cc1sc2c(c1C)C(c1ccc(CNC(=O)CNC(=O)c3ncc(C(=O)N[C@H]4C(C)(C)[C@H](Oc5ccc(C#N)c(Cl)c5)C4(C)C)cn3)cc1)=N[C@@H](Cc1ncco1)c1nnc(C)n1-2` [Compound I-292], the GI50 was over 3000 nM in experiment [1], over 3000 nM in experiment [2], 500 to 1500 nM in experiment [3] and over 3000 nM in experiment [4].
`CCNC(=O)C[C@@H]1N=C(c2ccc(N3CC(N(C)C4CCN(c5ncc(C(=O)N[C@H]6C(C)(C)[C@H](Oc7ccc(C#N)c(Cl)c7)C6(C)C)cn5)CC4)C3)cc2)c2c(sc(C)c2C)-n2c(C)nnc21` [Compound I-122]: the GI50 in experiment [1] is under 500 nM; in experiment [2], 500 to 1500 nM; in experiment [3] it was under 500 nM; in experiment [4] it was under 500 nM.
As for `Cc1sc2c(c1C)C(c1ccc(C3CCC4(CC3)CCN(c3ncc(C(=O)N[C@H]5C(C)(C)[C@H](Oc6ccc(C#N)c(Cl)c6)C5(C)C)cn3)C4)cc1)=N[C@@H](Cc1ncco1)c1nnc(C)n1-2` [Compound I-671, N-[3-(3-chloro-4-cyano-phenoxy)-2,2,4,4-tetramethyl-cyclobutyl]-2-[8-[4-[(9S)-4,5,13-trimethyl-9-(oxazol-2-ylmethyl)-3-thia-1,8,11,12-tetrazatricyclo[8.3.0.02,6]trideca-2(6),4,7,10,12-pentaen-7-yl]phenyl]-2-azaspiro[4.5]decan-2-yl]pyrimidine-5-carboxamide], the GI50 in experiment [1], in experiment [2], in experiment [3] and in experiment [4] was under 500 nM each time.
As to `Cc1sc2c(c1C)C(c1ccc(C(=O)N(C)CCCc3ncc(C(=O)N[C@H]4C(C)(C)[C@H](Oc5ccc(C#N)c(Cl)c5)C4(C)C)cn3)cc1)=N[C@H](Cc1ncco1)c1nnc(C)n1-2` [Compound I-343], the GI50 is 1500 to 3000 nM in experiment [1], over 3000 nM in experiment [2], 1500 to 3000 nM in experiment [3] and 1500 to 3000 nM in experiment [4].
As for `Cc1sc2c(c1C)C(c1ccc(N3CCC(CNC(=O)c4ncc(C(=O)N[C@H]5C(C)(C)[C@H](Oc6ccc(C#N)c(Cl)c6)C5(C)C)cn4)CC3)cc1)=N[C@H](Cc1ncco1)c1nnc(C)n1-2` [Compound I-291], the GI50 in experiment [1] was under 500 nM; in experiment [2], 500 to 1500 nM; in experiment [3], under 500 nM; in experiment [4], 500 to 1500 nM.
On to `Cc1sc2c(c1C)C(c1ccc(N3CC(CC4CCN(c5ccc(C(=O)N[C@H]6C(C)(C)[C@H](Oc7ccc(C#N)c(Cl)c7)C6(C)C)nc5)CC4)C3)cc1)=N[C@@H](C)c1nnc(C)n1-2` [Compound I-449], for which the GI50 was over 3000 nM in experiment [1], over 3000 nM in experiment [2], over 3000 nM in experiment [3] and 500 to 1500 nM in experiment [4].
For `CCNC(=O)C[C@@H]1N=C(c2ccc(N3CCC(OC4CCN(c5ncc(C(=O)N[C@H]6C(C)(C)[C@H](Oc7ccc(C#N)c(Cl)c7)C6(C)C)cn5)CC4)C3)cc2)c2c(sc(C)c2C)-n2c(C)nnc21` (some centres unmarked) [Compound I-126], the GI50 in experiment [1] is under 500 nM; in experiment [2], 500 to 1500 nM; in experiment [3], 500 to 1500 nM; in experiment [4], under 500 nM.
For `Cc1sc2c(c1C)C(c1ccc(C[C@H]3C[C@@]4(CCCN(c5ncc(C(=O)N[C@H]6C(C)(C)[C@H](Oc7ccc(C#N)c(Cl)c7)C6(C)C)cn5)C4)C3)cc1)=N[C@@H](Cc1ncco1)c1nnc(C)n1-2` [Compound I-156], the GI50 in experiment [1] is under 500 nM; in experiment [2] it was over 3000 nM; in experiment [3] it was over 3000 nM; in experiment [4], over 3000 nM.

As a reminder, the GI50 is the concentration at which growth is held to half of that of the control.
